Results as given in ChEMBL document CHEMBL6074676, “Optimization and Biological Evaluation of Novel 1H-Pyrrolo[2,3-c]pyridin Derivatives as Potent and Reversible Lysine Specific Demethylase 1 Inhibitors for the Treatment of Acute Myelogenous Leukemia” (J Med Chem, 2024).

How the values were obtained:
[1] = target: T1, Amine oxidase [flavin-containing] B (Homo sapiens, UniProt P27338); test: biochemical
T1 sequence (P27338 whole entry): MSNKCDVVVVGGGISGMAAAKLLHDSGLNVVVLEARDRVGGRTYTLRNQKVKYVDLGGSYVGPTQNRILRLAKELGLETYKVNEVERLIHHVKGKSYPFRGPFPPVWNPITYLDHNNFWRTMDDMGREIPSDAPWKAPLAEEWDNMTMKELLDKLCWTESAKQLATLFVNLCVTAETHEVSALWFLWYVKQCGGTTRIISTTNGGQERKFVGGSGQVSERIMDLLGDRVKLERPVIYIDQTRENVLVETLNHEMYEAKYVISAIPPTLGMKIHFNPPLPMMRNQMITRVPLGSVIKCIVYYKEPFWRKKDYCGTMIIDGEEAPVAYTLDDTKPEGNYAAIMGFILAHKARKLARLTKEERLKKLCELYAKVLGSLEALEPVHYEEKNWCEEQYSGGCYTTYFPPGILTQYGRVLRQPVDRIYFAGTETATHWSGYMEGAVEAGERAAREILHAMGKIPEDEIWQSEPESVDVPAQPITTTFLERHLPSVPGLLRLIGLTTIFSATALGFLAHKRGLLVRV
Description: Inhibition of human recombinant MAO-B expressed in baculovirus infected BTI cells by luminescence assay

[2] = target: T2, Lysine-specific histone demethylase 2 (Homo sapiens, UniProt Q8NB78); test: Inhibition of N-terminal GST-tagged recombinant full length human LSD2 expressed in Baculovirus using Bio- H3K4me2 (1 to 24 residues) as substrate incubated for 1 hr by TR-FRET assay
T2 sequence (Q8NB78 whole entry): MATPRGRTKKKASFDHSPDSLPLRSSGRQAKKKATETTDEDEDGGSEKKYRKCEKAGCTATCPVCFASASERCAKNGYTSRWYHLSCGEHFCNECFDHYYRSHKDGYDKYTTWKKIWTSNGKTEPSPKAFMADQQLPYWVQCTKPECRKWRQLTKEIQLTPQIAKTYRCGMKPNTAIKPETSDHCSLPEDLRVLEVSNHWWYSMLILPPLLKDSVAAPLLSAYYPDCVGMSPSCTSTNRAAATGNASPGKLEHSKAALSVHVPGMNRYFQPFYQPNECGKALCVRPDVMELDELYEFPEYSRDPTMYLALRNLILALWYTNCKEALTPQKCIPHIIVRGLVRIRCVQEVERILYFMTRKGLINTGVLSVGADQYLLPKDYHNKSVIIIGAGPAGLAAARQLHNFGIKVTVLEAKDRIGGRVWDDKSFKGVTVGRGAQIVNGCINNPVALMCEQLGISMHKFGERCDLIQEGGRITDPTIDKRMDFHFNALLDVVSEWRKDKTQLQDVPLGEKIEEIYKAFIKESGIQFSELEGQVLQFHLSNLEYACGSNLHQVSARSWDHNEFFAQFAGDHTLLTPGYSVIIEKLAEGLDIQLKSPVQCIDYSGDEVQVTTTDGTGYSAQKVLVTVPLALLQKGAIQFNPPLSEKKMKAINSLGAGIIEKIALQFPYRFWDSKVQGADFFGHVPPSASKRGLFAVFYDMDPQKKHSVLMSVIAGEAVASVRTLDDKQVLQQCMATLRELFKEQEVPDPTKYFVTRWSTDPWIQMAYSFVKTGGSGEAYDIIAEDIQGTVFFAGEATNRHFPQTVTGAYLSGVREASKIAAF

[3] = target: Cytochrome P450 3A4 (Homo sapiens, UniProt P08684); test: Inhibition of CYP3A4 in human liver microsomes; format: ADME, Microsome
[4] = target: Cytochrome P450 2C9 (Homo sapiens, UniProt P11712); test: Inhibition of CYP2C9 in human liver microsomes; format: ADME, Microsome
[5] = target: T3, Cytochrome P450 1A2 (Homo sapiens, UniProt P05177); test: Inhibition of CYP1A2 in human liver microsomes; format: ADME, Microsome
T3 sequence (P05177 whole entry): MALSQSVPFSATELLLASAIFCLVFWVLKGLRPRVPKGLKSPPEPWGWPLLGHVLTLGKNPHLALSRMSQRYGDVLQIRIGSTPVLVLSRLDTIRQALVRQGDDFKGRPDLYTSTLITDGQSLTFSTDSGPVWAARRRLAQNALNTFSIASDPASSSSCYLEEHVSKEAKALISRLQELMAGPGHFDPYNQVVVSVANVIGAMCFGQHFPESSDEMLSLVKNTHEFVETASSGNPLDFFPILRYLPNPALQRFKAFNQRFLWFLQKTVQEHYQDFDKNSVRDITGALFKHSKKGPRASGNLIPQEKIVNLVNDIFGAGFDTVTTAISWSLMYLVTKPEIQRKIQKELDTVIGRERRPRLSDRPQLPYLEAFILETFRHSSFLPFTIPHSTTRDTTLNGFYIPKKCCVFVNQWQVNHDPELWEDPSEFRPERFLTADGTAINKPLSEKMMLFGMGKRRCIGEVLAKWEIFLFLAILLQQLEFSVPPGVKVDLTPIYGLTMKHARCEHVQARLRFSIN

[6] = target: T4, Amine oxidase [flavin-containing] A (Homo sapiens, UniProt P21397); test: biochemical
T4 sequence (P21397 whole entry): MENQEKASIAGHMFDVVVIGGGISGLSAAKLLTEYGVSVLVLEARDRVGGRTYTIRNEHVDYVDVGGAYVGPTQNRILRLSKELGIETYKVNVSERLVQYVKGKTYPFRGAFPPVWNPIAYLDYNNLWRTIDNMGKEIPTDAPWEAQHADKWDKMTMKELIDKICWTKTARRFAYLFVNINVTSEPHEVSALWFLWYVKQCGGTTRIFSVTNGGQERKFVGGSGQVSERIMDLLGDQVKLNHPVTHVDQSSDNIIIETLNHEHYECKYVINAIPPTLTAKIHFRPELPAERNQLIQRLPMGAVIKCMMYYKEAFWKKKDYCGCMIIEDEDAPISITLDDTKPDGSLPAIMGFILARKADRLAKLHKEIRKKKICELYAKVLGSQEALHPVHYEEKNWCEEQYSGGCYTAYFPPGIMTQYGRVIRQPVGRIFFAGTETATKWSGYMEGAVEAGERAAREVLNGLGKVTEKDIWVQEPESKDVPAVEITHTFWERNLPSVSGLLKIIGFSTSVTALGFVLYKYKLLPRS
Description: Inhibition of human recombinant MAO-A expressed in baculovirus infected BTI cells by luminescence assay

[7] = target: Cytochrome P450 2D6 (Homo sapiens, UniProt P10635); test: Inhibition of CYP2D6 in human liver microsomes; format: ADME, Microsome
[8] = target: Cytochrome P450 2C19 (Homo sapiens, UniProt P33261); test: Inhibition of CYP2C19 in human liver microsomes; format: ADME, Microsome
[9] = tested on: MV4-11; test: Antitumor activity against human MV4-11 cells xenografted in Nu/Nu female mouse model assessed as relative tumor growth rate at 20 mg/kg, sc administered 5 days per week and measured on day 17 relative to control; format: functional; settings: time 17 day
[10] = tested on: MV4-11; test: Antitumor activity against human MV4-11 cells xenografted in Nu/Nu female mouse model assessed as tumor growth inhibition at 20 mg/kg, sc administered 5 days per week and measured on day 17 relative to control; format: functional; settings: MV4-11, 408 h, time 17 day, read-out: TGI
[11] = tested on: MV4-11; test: Antitumor activity against human MV4-11 cells xenografted in Nu/Nu female mouse model assessed as reduction in tumor volume at 20 mg/kg, sc measured immediately (reference value: 131+/-53 mm3); format: functional
[12] = tested on: MV4-11; test: Antitumor activity against human MV4-11 cells xenografted in Nu/Nu female mouse model assessed as relative tumor volume at 20 mg/kg, sc administered 5 days per week and measured on day 17 (reference value: 9.52+/-4.19); format: functional; settings: time 17 day
[13] = tested on: MV4-11; test: Antitumor activity against human MV4-11 cells xenografted in Nu/Nu female mouse model assessed as reduction in tumor volume at 20 mg/kg, sc administered 5 days per week and measured on day 17 (reference value: 1187+/-508 mm3); format: functional; settings: time 17 day
[14] = tested on: MV4-11; test: Antitumor activity against human MV4-11 cells xenografted in Nu/Nu female mouse model assessed as tumor growth inhibition at 20 mg/kg, po qd and measured on day 17 relative to control; format: functional; settings: MV4-11, 408 h, time 17 day, read-out: TGI
[15] = tested on: MV4-11; test: Antitumor activity against human MV4-11 cells xenografted in Nu/Nu female mouse model assessed as relative tumor volume at 20 mg/kg, po qd and measured on day 17 (reference value: 9.52+/-4.19); format: functional; settings: time 17 day
[16] = Upregulation of CD86 mRNA expression level in human MV4-11 cells measured after 24 hrs by RT-qPCR analysis; format: functional, cell-based; settings: MV4-11, 24 h
[17] = tested on: MV4-11; test: Antitumor activity against human MV4-11 cells xenografted in Nu/Nu female mouse model assessed as reduction in tumor volume at 20 mg/kg, po qd measured immediately (reference value: 131+/-53 mm3); format: functional
[18] = tested on: MV4-11; test: Antitumor activity against human MV4-11 cells xenografted in Nu/Nu female mouse model assessed as relative tumor growth rate at 20 mg/kg, po qd and measured on day 17 relative to control; format: functional; settings: time 17 day
[19] = tested on: MV4-11; test: Antitumor activity against human MV4-11 cells xenografted in Nu/Nu female mouse model assessed as reduction in tumor volume at 20 mg/kg, po qd and measured on day 17 (reference value: 1187+/-508 mm3); format: functional; settings: time 17 day
[20] = tested on: NCI-H526; test: Antiproliferative activity against human NCI-H526 cells assessed as inhibition of cell growth incubated for 240 hrs by MTS assay; format: functional, cell-based; settings: NCI-H526, 240 h
[21] = tested on: Kasumi 1; test: Antiproliferative activity against human Kasumi 1 cells assessed as inhibition of cell growth incubated for 240 hrs by MTS assay; format: functional, cell-based; settings: Kasumi 1, 240 h

Sequence of Cytochrome P450 2C9 (P11712 whole entry): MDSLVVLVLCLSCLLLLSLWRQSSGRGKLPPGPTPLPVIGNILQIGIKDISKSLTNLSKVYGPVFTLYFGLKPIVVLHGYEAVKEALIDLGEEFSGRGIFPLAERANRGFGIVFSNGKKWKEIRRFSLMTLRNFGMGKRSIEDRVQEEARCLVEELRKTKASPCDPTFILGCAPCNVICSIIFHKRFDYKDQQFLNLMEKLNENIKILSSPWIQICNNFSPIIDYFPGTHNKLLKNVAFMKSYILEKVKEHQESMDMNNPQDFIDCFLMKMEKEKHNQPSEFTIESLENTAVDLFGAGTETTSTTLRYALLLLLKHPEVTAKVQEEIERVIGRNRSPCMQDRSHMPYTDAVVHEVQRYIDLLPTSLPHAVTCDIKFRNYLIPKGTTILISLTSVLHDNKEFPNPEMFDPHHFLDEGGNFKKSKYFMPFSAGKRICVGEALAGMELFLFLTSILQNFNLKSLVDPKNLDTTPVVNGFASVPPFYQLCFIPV
Sequence of Cytochrome P450 2C19 (P33261 whole entry): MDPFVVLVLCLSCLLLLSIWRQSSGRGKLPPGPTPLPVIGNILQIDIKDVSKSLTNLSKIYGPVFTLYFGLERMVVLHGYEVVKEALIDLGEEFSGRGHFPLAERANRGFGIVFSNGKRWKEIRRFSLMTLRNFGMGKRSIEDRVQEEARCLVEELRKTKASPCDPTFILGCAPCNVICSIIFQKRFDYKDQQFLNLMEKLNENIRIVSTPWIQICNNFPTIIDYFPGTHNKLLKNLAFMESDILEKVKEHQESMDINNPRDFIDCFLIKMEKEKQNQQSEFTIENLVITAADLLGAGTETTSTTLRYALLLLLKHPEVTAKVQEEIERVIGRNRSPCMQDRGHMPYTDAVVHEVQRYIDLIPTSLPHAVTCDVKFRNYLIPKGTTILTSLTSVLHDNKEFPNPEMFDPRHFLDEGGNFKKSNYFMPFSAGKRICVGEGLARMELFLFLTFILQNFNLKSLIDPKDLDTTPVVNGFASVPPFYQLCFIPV
Sequence of Cytochrome P450 2D6 (P10635 whole entry): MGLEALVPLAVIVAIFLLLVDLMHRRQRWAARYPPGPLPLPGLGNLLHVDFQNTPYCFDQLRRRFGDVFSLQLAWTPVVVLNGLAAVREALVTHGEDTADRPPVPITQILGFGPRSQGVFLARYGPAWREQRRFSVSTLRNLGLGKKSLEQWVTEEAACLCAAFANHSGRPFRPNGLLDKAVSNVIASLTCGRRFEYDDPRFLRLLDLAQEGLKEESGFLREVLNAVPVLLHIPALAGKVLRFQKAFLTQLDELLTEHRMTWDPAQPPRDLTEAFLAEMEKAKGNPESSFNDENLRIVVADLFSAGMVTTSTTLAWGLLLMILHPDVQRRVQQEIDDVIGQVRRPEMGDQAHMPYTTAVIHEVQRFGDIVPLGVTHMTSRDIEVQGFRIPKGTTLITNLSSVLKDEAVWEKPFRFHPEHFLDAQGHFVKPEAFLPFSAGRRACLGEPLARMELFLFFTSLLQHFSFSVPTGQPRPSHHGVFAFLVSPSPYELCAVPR
Sequence of Cytochrome P450 3A4 (P08684 whole entry): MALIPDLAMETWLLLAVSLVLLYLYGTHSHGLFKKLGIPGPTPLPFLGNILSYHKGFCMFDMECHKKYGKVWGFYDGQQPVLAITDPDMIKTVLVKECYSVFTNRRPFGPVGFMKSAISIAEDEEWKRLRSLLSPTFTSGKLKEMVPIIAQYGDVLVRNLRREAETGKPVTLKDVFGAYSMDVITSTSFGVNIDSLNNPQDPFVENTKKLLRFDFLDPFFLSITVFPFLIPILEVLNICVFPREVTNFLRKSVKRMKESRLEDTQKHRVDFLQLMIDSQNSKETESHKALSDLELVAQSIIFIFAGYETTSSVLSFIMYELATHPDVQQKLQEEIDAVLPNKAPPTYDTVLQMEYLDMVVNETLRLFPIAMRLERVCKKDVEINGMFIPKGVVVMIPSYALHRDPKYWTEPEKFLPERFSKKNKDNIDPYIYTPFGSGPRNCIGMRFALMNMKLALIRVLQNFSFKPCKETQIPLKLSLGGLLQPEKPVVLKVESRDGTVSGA

Row | SMILES | IC50 [1] [µM] | IC50 [2] [µM] | IC50 [4] [µM] | IC50 [5] [µM] | IC50 [6] [µM] | IC50 [7] [µM] | IC50 [8] [µM] | IC50 ([3]; read-out: IC50) [µM] | further results
1 | Cc1cc(C)c(-c2ncc3c(cc(CN4CC[C@H](N)C4)n3C(C)C)c2-c2ccc(C#N)c(F)c2)cc1C | > 20 | > 20 | 32.9 | > 50 | > 20 | 46.7 | – | – | IC50 [3]: 4.53 µM
2 | Cc1cc(C)c(-c2ncc3c(cc(CN4CC[C@H](N)C4)n3CC(F)F)c2-c2ccc(C#N)c(F)c2)cc1C | > 20 | > 20 | – | – | > 20 | – | – | – | –
3 | Cc1ccc(-c2ncc3c(cc(CN4CC[C@H](N)C4)n3C(C)C)c2-c2ccc(C#N)c(F)c2)cc1C | > 20 | > 20 | 28.8 | > 50 | > 20 | 43.1 | 24.8 | 9.46 | –
4 | Cc1cc(C)c(-c2ncc3c(cc(CN4CC[C@H](N)C4)n3C)c2-c2ccc(C#N)c(F)c2)cc1C | > 20 | > 20 | – | – | > 20 | – | – | – | –
5 | Cc1cc(-c2ncc3c(cc(CN4CC[C@H](N)C4)n3C(C)C)c2-c2ccc(C#N)c(F)c2)cc(C)c1C | > 20 | > 20 | 30 | > 50 | > 20 | > 50 | 17.9 | 4.96 | –
6 | Nc1ccn([C@@H]2O[C@H](CO)[C@@H](O)[C@@H]2O)c(=O)n1 [CYTARABINE] | – | – | – | – | – | – | – | – | Activity [9]: 59.36%; inhibition in vivo at 20 mg/kg [10]: 54.7%; Activity [11]: 131 mm3; Activity [12]: 5.65; Activity [13]: 741 mm3
7 | Cc1ccc(-c2ncc3c(cc(CN4CC[C@H](N)C4)n3CC(F)F)c2-c2ccc(C#N)c(F)c2)cc1C | > 20 | > 20 | 45.5 | > 50 | > 20 | 45.7 | 25.8 | 20.9 | –
8 | COc1ccc(-c2c(-c3ccc(C#N)c(F)c3)nc(N3CCC(N)CC3)n(C)c2=O)cc1F [PULRODEMSTAT] | – | – | – | – | – | – | – | – | inhibition in vivo at 20 mg/kg [14]: 64.2%; Activity [15]: 3.75; EC50 [16]: 0.032 µM; Activity [17]: 132 mm3; Activity [18]: 39.33%; Activity [19]: 554 mm3; IC50 [20]: 0.01 µM; IC50 [21]: 0.003 µM
9 | CCn1c(CN2CC[C@H](N)C2)cc2c(-c3ccc(C#N)c(F)c3)c(-c3cc(C)c(C)c(C)c3)ncc21 | > 20 | > 20 | – | – | > 20 | – | – | – | –
10 | Cc1cc(C)c(-c2ncc3c(cc(CN4CC[C@H](N)C4)n3CC(F)(F)F)c2-c2ccc(C#N)c(F)c2)cc1C | > 20 | > 20 | 27.3 | > 50 | > 20 | 20.4 | 22 | 7.74 | –
